Tests used:
Format in all cases: in vivo
[1] = system: waterhemp (common waterhemp, Amaranthus rudis); assay: Test E greenhouse herbicide test, pre- and postemergence
Source text: (§1) Seeds of plant species selected from corn (Zea mays), soybean (Glycine max), velvetleaf (Abutilon theophrasti), lambsquarters (Chenopodium album), wild poinsettia (Euphorbia heterophylla), pigweed, palmer (palmer pigweed, Amaranthus palmeri), waterhemp (common waterhemp, Amaranthus rudis), surinam grass (Brachiaria decumbens), crabgrass, large (large crabgrass, Digitaria sanguinalis), crabgrass, Brazilian (Brazilian crabgrass, Digitaria horizontalis), panicum, fall (fall panicum, Panicum dichotomiflorum), foxtail, giant (giant foxtail, Setaria faberii), foxtail, green (green foxtail, Setaria viridis), goosegrass (Eleusine indica), johnsongrass (Sorghum halepense), ragweed (common ragweed, Ambrosia elatior), barnyardgrass (Echinochloa crus-galli), sandbur (southem sandbur, Cenchrus echinatus), arrowleaf sida (Sida rhombifolia), Italian ryegrass (Lolium multiflorum), dayflower (Virginia (VA) dayflower, Commelina virginica), field bindweed (Convolvulus arvensis), momingglory (Ipomoea coccinea), nightshade (eastern black nightshade, Solanum ptycanthum), kochia (Kochia scoparia), nutsedge, yellow (yellow nutsedge, Cyperus esculentus), horseweed (Conyza canadensis), and beggarticks (hairy beggarticks, Bidens pilosa), were planted into a silt loam soil and treated preemergence with test chemicals formulated in a non-phytotoxic solvent mixture which included a surfactant.
(§2) At the same time, plants from these crop and weed species and also waterhemp_RES1, (ALS & Triazine resistant common waterhemp, Amaranthus rudis), and waterhemp_RES2, (ALS & HPPD resistant common waterhemp, Amaranthus rudis) were planted in pots containing Redi-Earth® planting medium (Scotts Company, 14111 Scottslawn Road, Marysville, Ohio 43041) comprising spaghnum peat moss, vermiculite, wetting agent and starter nutrients were treated with postemergence applications of test chemicals formulated in the same manner. Plants ranged in height from 2 to 18 cm for postemergence treatments (1- to 4-leaf stage). Treated plants and controls were maintained in a greenhouse for 14 to 21 d, after which time all species were compared to controls and visually evaluated. Plant response ratings, summarized in Table E, are based on a scale of 0 to 100 where 0 is no effect and 100 is complete control. A dash (-) response means no test result.

corn (Zea mays) = assay: as above
Source text: as §1, §2

soybean (Glycine max) = assay: as above
Source text: as §1, §2

[2] = system: crabgrass, Brazilian (Brazilian crabgrass, Digitaria horizontalis); assay: as above
Source text: as §1, §2

[3] = system: bluegrass (annual bluegrass, Poa annua); assay: Test D controlled growth environment herbicide test, pre- and postemergence
Procedure, shortened: (§3)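 Species sown in silt loam and sprayed preemergence, or grown in peat-based medium to 2–18 cm (1- to 4-leaf stage) and sprayed postemergence, with compounds in non-phytotoxic solvent plus surfactant. Visual injury scored versus controls after 14–21 d in a controlled environment, 0 (no effect) to 100 (complete control).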

[4] = system: speedwell (bird's-eye speedwell, Veronica persica); assay: as above; conditions: for Speedwell plant response rating / Plant response rating (scale of 0 to 100), Speedwell: 31 g ai/ha
Procedure, shortened: as §3

[5] = system: bromegrass, downy (downy bromegrass, Bromus tectorum); assay: as above; conditions: for Bromegrass, Downy plant response rating / Plant response rating (scale of 0 to 100), Bromegrass, Downy: 31 g ai/ha
Procedure, shortened: as §3

[6] = system: ryegrass, Italian (Italian ryegrass, Lolium multiflorum); assay: as above; conditions: for Ryegrass, Italian plant response rating / Plant response rating (scale of 0 to 100), Ryegrass, Italian: 31 g ai/ha
Procedure, shortened: as §3

[7] = 62 g ai/ha, Postemergence, scale 0 to 100 (0 no effect, 100 complete control)
[8] = 62 g ai/ha, Preemergence, scale 0 to 100 (0 no effect, 100 complete control)
[9] = 125 g ai/ha, Postemergence, scale 0 to 100 (0 no effect, 100 complete control)
[10] = 125 g ai/ha, Preemergence, scale 0 to 100 (0 no effect, 100 complete control)
[11] = 250 g ai/ha, Postemergence, scale 0 to 100 (0 no effect, 100 complete control)
[12] = Postemergence, 31 g ai/ha, visual, scale 0 no effect to 100 complete control
[13] = Preemergence, 31 g ai/ha, scale 0 to 100, 0 no effect, 100 complete control
[14] = Preemergence, 250 g ai/ha, visual, scale 0 no effect to 100 complete control
[15] = Preemergence, 125 g ai/ha, visual, scale 0 no effect to 100 complete control
[16] = Postemergence, 31 g ai/ha, scale 0 to 100 (0 no effect, 100 complete control)
[17] = Postemergence, 125 g ai/ha, visual rating on scale 0 (no effect) to 100 (complete control), 14 to 21 d
[18] = Postemergence, 250 g ai/ha, scale 0 to 100 (0 no effect, 100 complete control)
[19] = Preemergence, 62 g ai/ha, scale 0 to 100 (0 no effect, 100 complete control)
[20] = Preemergence, 125 g ai/ha, scale 0 to 100 (0 no effect, 100 complete control)
[21] = Preemergence, 250 g ai/ha, scale 0 to 100, 0 no effect, 100 complete control
[22] = postemergence, 62 g ai/ha, scale 0 to 100, 0 no effect, 100 complete control
[23] = Postemergence, scale 0 to 100 (0 no effect, 100 complete control)

SMILES: Cn1nc(Br)c(O)c(-c2cccc3ccccc23)c1=O [Compound 20]
- Plant response rating, Waterhemp [1, 7]: 75
- Plant response rating, Waterhemp [1, 8]: 65
- Plant response rating, Waterhemp [1, 9]: 80
- Plant response rating, Waterhemp [1, 10]: 85
- Plant response rating, Waterhemp [1, 11]: 85
- Plant response rating, Waterhemp [1, 12]: 70
- Plant response rating, Waterhemp [1, 13]: 0
- Plant response rating, Waterhemp [1, 14]: 100
- Plant response rating, Corn (corn (Zea mays); [7]): 0
- Plant response rating, Corn (corn (Zea mays); [8]): 0
- Plant response rating, Corn (corn (Zea mays); [9]): 0
- Plant response rating, Corn (corn (Zea mays); [11]): 15
- Plant response rating, Corn (corn (Zea mays); [12]): 0
- Plant response rating, Corn (corn (Zea mays); [13]): 0
- Plant response rating, Corn (corn (Zea mays); [15]): 0
- Plant response rating, Corn (corn (Zea mays); [14]): 0
- Plant response rating, Soybean (soybean (Glycine max); [7]): 20
- Plant response rating, Soybean (soybean (Glycine max); [8]): 0
- Plant response rating, Soybean (soybean (Glycine max); [9]): 40
- Plant response rating, Soybean (soybean (Glycine max); [10]): 20
- Plant response rating, Soybean (soybean (Glycine max); [11]): 30
- Plant response rating, Soybean (soybean (Glycine max); [12]): 20
- Plant response rating, Soybean (soybean (Glycine max); [13]): 0
- Plant response rating, Crabgrass, Brazil [2, 7]: 20
- Plant response rating, Crabgrass, Brazil [2, 8]: 60
- Plant response rating, Crabgrass, Brazil [2, 9]: 20
- Plant response rating, Crabgrass, Brazil [2, 11]: 50
- Plant response rating, Crabgrass, Brazil [2, 12]: 10
- Plant response rating, Crabgrass, Brazil [2, 13]: 40
- Plant response rating, Crabgrass, Brazil [2, 15]: 70
- Plant response rating, Crabgrass, Brazil [2, 14]: 90
- Bluegrass plant response rating [3, 16]: 10
- Plant response rating, Bluegrass [3, 17]: 30
- Plant response rating, Bluegrass [3, 18]: 40
- Plant response rating (scale of 0 to 100), Bluegrass ([3]; Preemergence, 31 g ai/ha): 10
- Plant response rating, Bluegrass [3, 19]: 15
- Plant response rating, Bluegrass [3, 20]: 25
- Bluegrass plant response rating [3, 21]: 35
- Plant response rating, Bluegrass [3, 22]: 25
- Speedwell plant response rating [4, 23]: 5
- Plant response rating, Speedwell [4, 17]: 100
- Plant response rating, Speedwell [4, 18]: 100
- Plant response rating (scale of 0 to 100), Speedwell ([4]; Preemergence): 70
- Plant response rating, Speedwell [4, 19]: 70
- Plant response rating, Speedwell [4, 20]: 70
- Plant response rating, Speedwell [4, 21]: 90
- Plant response rating, Speedwell [4, 22]: 15
- Bromegrass, Downy plant response rating [5, 23]: 0
- Plant response rating, Bromegrass, Downy [5, 17]: 10
- Plant response rating, Bromegrass, Downy [5, 18]: 15
- Plant response rating (scale of 0 to 100), Bromegrass, Downy ([5]; Preemergence): 15
- Plant response rating, Bromegrass, Downy [5, 19]: 35
- Plant response rating, Bromegrass, Downy [5, 20]: 40
- Plant response rating, Bromegrass, Downy [5, 21]: 45
- Plant response rating, Bromegrass, Downy [5, 22]: 10
- Ryegrass, Italian plant response rating [6, 23]: 55
- Plant response rating, Ryegrass, Italian [6, 17]: 80
- Plant response rating, Ryegrass, Italian [6, 18]: 90
- Plant response rating (scale of 0 to 100), Ryegrass, Italian ([6]; Preemergence): 90
- Plant response rating, Ryegrass, Italian [6, 19]: 100
- Plant response rating, Ryegrass, Italian [6, 20]: 100
- Plant response rating, Ryegrass, Italian [6, 21]: 100
- Plant response rating, Ryegrass, Italian [6, 22]: 70

SMILES: Cc1nn(C)c(=O)c(-c2ccc(F)c3ccccc23)c1O [Compound 41]
- Plant response rating, Waterhemp [1, 7]: 85
- Plant response rating, Waterhemp [1, 8]: 98
- Plant response rating, Waterhemp [1, 9]: 90
- Plant response rating, Waterhemp [1, 10]: 100
- Plant response rating, Waterhemp [1, 11]: 85
- Plant response rating, Waterhemp [1, 12]: 75
- Plant response rating, Waterhemp [1, 13]: 75
- Plant response rating, Waterhemp [1, 14]: 100
- Plant response rating, Corn (corn (Zea mays); [7]): 0
- Plant response rating, Corn (corn (Zea mays); [8]): 0
- Plant response rating, Corn (corn (Zea mays); [9]): 0
- Plant response rating, Corn (corn (Zea mays); [11]): 5
- Plant response rating, Corn (corn (Zea mays); [12]): 0
- Plant response rating, Corn (corn (Zea mays); [13]): 0
- Plant response rating, Corn (corn (Zea mays); [15]): 0
- Plant response rating, Corn (corn (Zea mays); [14]): 25
- Plant response rating, Soybean (soybean (Glycine max); [7]): 40
- Plant response rating, Soybean (soybean (Glycine max); [8]): 35
- Plant response rating, Soybean (soybean (Glycine max); [9]): 60
- Plant response rating, Soybean (soybean (Glycine max); [10]): 20
- Plant response rating, Soybean (soybean (Glycine max); [11]): 75
- Plant response rating, Soybean (soybean (Glycine max); [12]): 30
- Plant response rating, Soybean (soybean (Glycine max); [13]): 0
- Plant response rating, Soybean (soybean (Glycine max); [14]): 65
- Plant response rating, Crabgrass, Brazil [2, 7]: 20
- Plant response rating, Crabgrass, Brazil [2, 8]: 65
- Plant response rating, Crabgrass, Brazil [2, 9]: 30
- Plant response rating, Crabgrass, Brazil [2, 11]: 50
- Plant response rating, Crabgrass, Brazil [2, 12]: 10
- Plant response rating, Crabgrass, Brazil [2, 13]: 80
- Plant response rating, Crabgrass, Brazil [2, 15]: 100
- Plant response rating, Crabgrass, Brazil [2, 14]: 80
- Bluegrass plant response rating [3, 16]: 15
- Plant response rating, Bluegrass [3, 17]: 25
- Plant response rating, Bluegrass [3, 18]: 35
- Plant response rating (scale of 0 to 100), Bluegrass ([3]; Preemergence, 31 g ai/ha): 70
- Plant response rating, Bluegrass [3, 19]: 75
- Plant response rating, Bluegrass [3, 20]: 80
- Bluegrass plant response rating [3, 21]: 90
- Plant response rating, Bluegrass [3, 22]: 30
- Speedwell plant response rating [4, 23]: 100
- Plant response rating, Speedwell [4, 17]: 100
- Plant response rating, Speedwell [4, 18]: 100
- Plant response rating (scale of 0 to 100), Speedwell ([4]; Preemergence): 100
- Plant response rating, Speedwell [4, 19]: 95
- Plant response rating, Speedwell [4, 20]: 100
- Plant response rating, Speedwell [4, 21]: 100
- Plant response rating, Speedwell [4, 22]: 100
- Bromegrass, Downy plant response rating [5, 23]: 10
- Plant response rating, Bromegrass, Downy [5, 17]: 35
- Plant response rating, Bromegrass, Downy [5, 18]: 45
- Plant response rating (scale of 0 to 100), Bromegrass, Downy ([5]; Preemergence): 50
- Plant response rating, Bromegrass, Downy [5, 19]: 55
- Plant response rating, Bromegrass, Downy [5, 20]: 70
- Plant response rating, Bromegrass, Downy [5, 21]: 80
- Plant response rating, Bromegrass, Downy [5, 22]: 20
- Ryegrass, Italian plant response rating [6, 23]: 80
- Plant response rating, Ryegrass, Italian [6, 17]: 85
- Plant response rating, Ryegrass, Italian [6, 18]: 90
- Plant response rating (scale of 0 to 100), Ryegrass, Italian ([6]; Preemergence): 95
- Plant response rating, Ryegrass, Italian [6, 19]: 100
- Plant response rating, Ryegrass, Italian [6, 20]: 100
- Plant response rating, Ryegrass, Italian [6, 21]: 100
- Plant response rating, Ryegrass, Italian [6, 22]: 85

Reference: US10597388B2, “Pyridazinone herbicides” (FMC CORPORATION, priority 2014, dated 2020)
